According to patent publication US9394329B2, “Glucopyranosyl derivatives and their uses in medicine” (Sunshine Lake Pharma Co., Ltd., priority 2013, dated 2016):

Assays:
SGLT-2 = molecular target: T1, SGLT-2 (Homo sapiens, UniProt P31639); assay: SGLT-2 activity measurement ([14C]-AMG uptake in CHO cells expressing human SGLT2); type: cell-based; settings: CHO cells expressing human SGLT2, 0.5 μm [14C]-AMG, 37° C. for 1 hour
T1 construct: expressed in transfected cells
T1 sequence (P31639 1-672): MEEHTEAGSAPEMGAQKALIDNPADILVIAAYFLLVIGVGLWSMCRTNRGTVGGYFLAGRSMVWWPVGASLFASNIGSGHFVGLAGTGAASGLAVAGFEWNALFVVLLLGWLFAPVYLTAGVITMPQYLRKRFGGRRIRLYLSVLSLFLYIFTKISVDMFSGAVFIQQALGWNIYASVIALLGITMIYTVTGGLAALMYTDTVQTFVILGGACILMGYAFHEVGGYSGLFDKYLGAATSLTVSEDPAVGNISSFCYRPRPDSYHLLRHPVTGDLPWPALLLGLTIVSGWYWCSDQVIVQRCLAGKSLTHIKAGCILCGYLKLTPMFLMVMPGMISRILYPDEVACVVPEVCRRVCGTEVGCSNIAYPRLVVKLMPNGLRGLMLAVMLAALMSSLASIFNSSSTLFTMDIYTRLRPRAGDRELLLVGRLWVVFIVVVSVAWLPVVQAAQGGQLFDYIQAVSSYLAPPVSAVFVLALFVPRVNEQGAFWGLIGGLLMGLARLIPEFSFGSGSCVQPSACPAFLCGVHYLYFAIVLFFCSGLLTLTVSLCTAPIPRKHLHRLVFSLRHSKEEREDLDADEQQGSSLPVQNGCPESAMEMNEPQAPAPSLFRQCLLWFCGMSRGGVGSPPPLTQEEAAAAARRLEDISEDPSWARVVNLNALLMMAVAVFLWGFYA
Text: (§1) The following methods can be used to determine the inhibitory activity of the compounds described in the invention for SGLT-1 and SGLT-2.
(§2) ^14C-AMG solution was purchased from PerkinElmer, Cat. No. NEZ080001MC.
(§3) α-Methylglucoside was purchased from Sigma, Cat. No. M9376-100G.
(§4) N-methyl-D-glucosamine was purchased from Sigma, Cat. No. M2004-100G.
(§5) Phloridzin was purchased from Sigma, Cat. No. P3449-1G.
(§6) 96-Well plate was purchased from Corning, Cat. No. 3903.
(§7) Mock-transfected FIP-in CHO cells (3×10^4 cells) and expressing human SGLT1/SGLT2 CHO cells were seeded into 96-well plates respectively. The cells were incubated for 12 hours. Each well of the 96-well plates was washed with 150 μL of sodium-free buffer once. To each well was added 50 μL of sodium-containing buffer containing test compounds having different concentrations and […] [^14C]-AMG. The incubation mixture was incubated at 37° C. for 1 hour. To each well was added 150 μL of precooled sodium-free buffer to terminate the reaction. The cell pellet was washed with sodium-free buffer three times and the residual liquid in well was removed. To each well was added 20 μL of precooled 100 mM NaOH. The 96-well plates were vibrated at 900 rpm for 5 minutes. Scintillation fluid (80 μL) was added to each well which was then vibrated at 600 rpm for 5 minutes. The amount of ^14C-AMG was quantitatively detected using liquid scintillation.

SGLT-1 = molecular target: T2, SGLT-1 (Homo sapiens, UniProt P13866); assay: SGLT-1 activity measurement ([14C]-AMG uptake in CHO cells expressing human SGLT1); type: cell-based; settings: CHO cells expressing human SGLT1, 0.5 μm [14C]-AMG, 37° C. for 1 hour
T2 construct: expressed in transfected cells
T2 sequence (P13866 1-664): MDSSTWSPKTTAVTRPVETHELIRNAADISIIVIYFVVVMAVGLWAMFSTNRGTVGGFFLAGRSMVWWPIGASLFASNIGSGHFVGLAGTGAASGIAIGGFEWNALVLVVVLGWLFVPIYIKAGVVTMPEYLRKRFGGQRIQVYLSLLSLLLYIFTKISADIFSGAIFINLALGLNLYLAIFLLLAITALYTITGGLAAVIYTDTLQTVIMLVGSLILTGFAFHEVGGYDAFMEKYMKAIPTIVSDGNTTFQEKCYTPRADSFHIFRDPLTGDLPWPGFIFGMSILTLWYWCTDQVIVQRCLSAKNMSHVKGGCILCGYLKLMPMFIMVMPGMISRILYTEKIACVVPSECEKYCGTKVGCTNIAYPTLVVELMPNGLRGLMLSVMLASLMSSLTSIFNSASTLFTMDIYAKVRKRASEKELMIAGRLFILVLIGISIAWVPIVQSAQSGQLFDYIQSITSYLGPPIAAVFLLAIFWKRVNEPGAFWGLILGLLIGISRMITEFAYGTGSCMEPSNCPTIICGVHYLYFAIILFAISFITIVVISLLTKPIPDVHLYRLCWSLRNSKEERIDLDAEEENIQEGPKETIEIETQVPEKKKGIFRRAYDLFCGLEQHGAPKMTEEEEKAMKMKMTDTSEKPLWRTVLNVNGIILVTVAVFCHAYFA
Text: as §1, §2, §3, §4, §5, §6, §7

Row | Structure (SMILES) | IC50 (SGLT-2) [nM] | IC50 (SGLT-1) [nM]
1 | COc1ccc(Cc2cc([C@]34OC[C@](C(C)(C)O)(O3)[C@@H](O)[C@H](O)[C@H]4O)ccc2Cl)c(F)c1F [Example 22, (1S,2S,3S,4R,5S)-5-[4-Chloro-3-[(2,3-difluoro-4-methoxy-phenyl)methyl]phenyl]-1-(1-hydroxy-1-methyl-ethyl)-6,8-dioxabicyclo[3.2.1]octane-2,3,4-triol] | 1.84 | 1040
2 | CCOc1ccc(Cc2cc([C@]34OC[C@](C(C)OC(=O)OC(C)C)(O3)[C@@H](O)[C@H](O)[C@H]4O)ccc2Cl)cc1 (stereo partly drawn) [Example 13, 1-[(1S,3S,4R,5S)-5-[4-Chloro-3-[(4-ethoxyphenyl)methyl]phenyl]-2,3,4-trihydroxy-6,8-dioxabicyclo[3.2.1]octan-1-yl]ethyl isopropyl carbonate] | 44.1 | 3760
3 | CCOc1ccc(Cc2cc([C@]34OC[C@](C(C)O)(O3)[C@@H](O)[C@H](O)[C@H]4O)ccc2Cl)cc1 (stereo partly drawn) [Example 1, (1R,2S,3S,4R,5S)-5-[4-Chloro-3-[(4-ethoxyphenyl)methyl]phenyl]-1-(1-hydroxyethyl)-6,8-dioxabicyclo[3.2.1]octane-2,3,4-triol] | 1.65 | 260
4 | CC#CC(O)[C@@]12CO[C@@](c3ccc(Cl)c(Cc4ccc(OCC)cc4)c3)(O1)[C@H](O)[C@@H](O)[C@@H]2O (stereo partly drawn) [Example 5, (1R,2S,3S,4R,5S)-5-[4-chloro-3 [(4-ethoxyphenyl)methyl]phenyl]-1-(1-hydroxybut-2-ynyl)-6,8-dioxabicyclo[3.2.1]octane-2,3,4-triol] |  | 840
5 | CCOc1ccc(Cc2cc([C@]34OC[C@](C(C)(C)O)(O3)[C@@H](O)[C@H](O)[C@H]4O)ccc2Cl)cc1F [Example 20, (1S,2S,3S,4R,5S)-5-[4-Chloro-3-[(4-ethoxy-3-fluoro-phenyl)methyl]phenyl]-1-(1-hydroxy-1-methyl-ethyl)-6,8-dioxabicyclo[3.2.1]octane-2,3,4-triol] | 0.85 | 170
6 | COc1ccc(Cc2cc([C@]34OC[C@](C(C)O)(O3)[C@@H](O)[C@H](O)[C@H]4O)ccc2Cl)c(F)c1F (stereo partly drawn) [Example 21, (1R,2S,3S,4R,5S)-5-[4-Chloro-3-[(2,3-difluoro-4-methoxy-phenyl)methyl]phenyl]-1-(1-hydroxyethyl)-6,8-dioxabicyclo[3.2.1]octane-2,3,4-triol] | 0.81 | 120
7 | CCOc1ccc(Cc2cc([C@]34OC[C@](C(C)O)(O3)[C@H](O)[C@H](O)[C@H]4O)ccc2Cl)cc1 (stereo partly drawn) [Example 28, (1R,2R,3S,4R,5S)-5-[4-Chloro-3-[(4-ethoxyphenyl)methyl]phenyl]-1-(1-hydroxyethyl)-6,8-dioxabicyclo[3.2.1]octane-2,3,4-triol] | 12.6 | 3400
8 | CC(C)(O)[C@@]12CO[C@@](c3ccc(Cl)c(Cc4ccc(OCC(F)F)cc4)c3)(O1)[C@H](O)[C@@H](O)[C@@H]2O [Example 25, (1S,2S,3S,4R,5S)-5-[4-Chloro-3-[[4-(2,2-difluoroethoxyl)phenyl]methyl]phenyl]-1-(1-hydroxy-1-methyl-ethyl)-6,8-dioxabicyclo[3.2.1]octane-2,3,4-triol] | 3.48 | 5560
9 | CCOc1ccc(Cc2cc([C@]34OC[C@](C(C)O)(O3)[C@@H](O)[C@H](O)[C@H]4O)ccc2Cl)cc1F (stereo partly drawn) [Example 19, (1R,2S,3S,4R,5S)-5-[4-chloro-3-[(4-ethoxy-3-fluoro-phenyl)methyl]phenyl]-1-(1-hydroxyethyl)-6,8-dioxabicyclo[3.2.1]octane-2,3,4-triol] | 1.27 | 180
10 | CCOc1ccc(Cc2cc([C@]34OC[C@](C(C)O)(O3)[C@@H](O)[C@H](O)[C@H]4O)ccc2Cl)c(F)c1F (stereo partly drawn) [Example 23, (1R,2S,3S,4R,5S)-5-[4-Chloro-3-[(4-ethoxy-2,3-difluoro-phenyl)methyl]phenyl]-1-(1-hydroxyethyl)-6,8-dioxabicyclo[3.2.1]octane-2,3,4-triol] | 2.28 | 560
11 | CCOc1ccc(Cc2cc([C@]34OC[C@](C(C)(C)O)(O3)[C@@H](O)[C@H](O)[C@H]4O)ccc2Cl)cc1 [Example 2, (1S,2S,3S,4R,5S)-5-[4-Chloro-3-[(4-ethoxyphenyl)methyl]phenyl]-1-(2-hydroxypropan-2-yl)-6,8-dioxabicyclo[3.2.1]octane-2,3,4-triol] | 1.14 | 110
12 | CC(O)[C@@]12CO[C@@](c3ccc(Cl)c(Cc4ccc(OCC(F)(F)F)cc4)c3)(O1)[C@H](O)[C@@H](O)[C@@H]2O (stereo partly drawn) [Example 17, (1R,2S,3S,4R,5S)-5-[4-Chloro-3-[[4-(2,2,2-trifluoroethoxy)phenyl]methyl]phenyl]-1-(1-hydroxyethyl)-6,8-dioxabicyclo[3.2.1]octane-2,3,4-triol] | 1.22 | 820
13 | CC(O)[C@@]12CO[C@@](c3ccc(Cl)c(Cc4ccc(OC(F)(F)F)cc4)c3)(O1)[C@H](O)[C@@H](O)[C@@H]2O (stereo partly drawn) [Example 15, (1R,2S,3S,4R,5S)-5-[4-chloro-3-[[4-(trifluoromethoxy)phenyl]methyl]phenyl]-1-(1-hydroxyethyl)-6,8-dioxabicyclo[3.2.1]octane-2,3,4-triol] | 1.96 | 290
14 | C#CC(O)C12CO[C@@](c3ccc(Cl)c(Cc4ccc(OCC)cc4)c3)(O1)[C@H](O)[C@@H](O)[C@@H]2O (stereo in doubt) [Example 4, (1S,2S,3S,4R,5S)-5-[4-Chloro-3 [(4-ethoxyphenyl)methyl]phenyl]-1-(1-hydroxyprop-2-yn-1-yl)-6,8-dioxabicyclo[3.2.1]octane-2,3,4-triol] | 9.39 | 4210
15 | CCOc1ccc(Cc2cc([C@]34OC[C@](C5(O)CC5)(O3)[C@@H](O)[C@H](O)[C@H]4O)ccc2Cl)cc1 [Example 6, (1S,2S,3S,4R,5S)-5-[4-Chloro-3 [(4-ethoxyphenyl)methyl]phenyl]-1-(1-hydroxycyclopropyl)-6,8-dioxabicyclo[3.2.1]octane-2,3,4-triol] | 3.6 | 26800
16 | CC(C)(O)[C@@]12CO[C@@](c3ccc(Cl)c(Cc4ccc(OC(F)(F)F)cc4)c3)(O1)[C@H](O)[C@@H](O)[C@@H]2O [Example 16, (1S,2S,3S,4R,5S)-5-[4-chloro-3-[[4-(trifluoromethoxy)phenyl]methyl]phenyl]-1-(1-hydroxy-1-methyl-ethyl)-6,8-dioxabicyclo[3.2.1]octane-2,3,4-triol] | 2.95 | 1310
17 | CC(C)(O)[C@@]12CO[C@@](c3ccc(Cl)c(Cc4ccc(OCC(F)(F)F)cc4)c3)(O1)[C@H](O)[C@@H](O)[C@@H]2O [Example 18, (1S,2S,3S,4R,5S)-5-[4-Chloro-3-[[4-(2,2,2-trifluoroethoxyl)phenyl]methyl]phenyl]-1-(1-hydroxy-1-methyl-ethyl)-6,8-dioxabicyclo[3.2.1]octane-2,3,4-triol] | 3.66 | 350
